Test results published in PubChem BioAssay (NCI).
“And” between values parts separate entries of the source, which are not always exact repeats. Equal entries are not always repeated.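 96-well plates; 48 h exposure; 5 concentrations. Endpoints by linear interpolation between flanking doses. Not reached: highest tested concentration assigned. Abbreviation: GI50, concentration required for 50% inhibition of growth. TGI: concentration producing complete growth inhibition.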

What was measured:
Assay in all cases: inhibition of tumour cell growth, NCI panel, 48 h
A549 NSCLC = test system: A549 NSCLC
CCRF-CEM leukemia = test system: CCRF-CEM leukemia
HCT-116 colon = test system: HCT-116 colon
HOP-92 NSCLC = test system: HOP-92 NSCLC
K-562 leukemia = test system: K-562 leukemia
KM12 colon = test system: KM12 colon
NCI-H226 lung = test system: NCI-H226 lung
RXF 393 renal = test system: RXF 393 renal
UACC-257 melanoma = test system: UACC-257 melanoma
UACC-62 melanoma = test system: UACC-62 melanoma

Compound | GI50 (A549 NSCLC) | TGI (A549 NSCLC) | GI50 (CCRF-CEM leukemia) | TGI (CCRF-CEM leukemia) | GI50 (HCT-116 colon) | TGI (HCT-116 colon) | GI50 (HOP-92 NSCLC) | TGI (HOP-92 NSCLC) | GI50 (K-562 leukemia) | TGI (K-562 leukemia) | GI50 (KM12 colon) | TGI (KM12 colon) | GI50 (NCI-H226 lung) | TGI (NCI-H226 lung) | GI50 (RXF 393 renal) | TGI (RXF 393 renal) | GI50 (UACC-257 melanoma) | TGI (UACC-257 melanoma) | GI50 (UACC-62 melanoma) | TGI (UACC-62 melanoma)
O=S1(=O)CC(Br)C(Br)C1 (stereo not given) | 13.5 µM | 28.9 µM | 1.6 µM | 8.95 µM | 2.34 µM | 6.53 µM | 2.35 µM | 7.43 µM | 3.79 µM | 14.2 µM | 13.4 µM | 32.4 µM | 1.49 µM | 11.2 µM | 1.11 µM | 2.64 µM | 4.94 µM | 51.2 µM | 5.39 µM | 18.7 µM
CC(C)(F)C[C@H](N[C@@H](c1ccc(-c2ccc(S(C)(=O)=O)cc2)cc1)C(F)(F)F)C(=O)NC1(C#N)CC1 | > 55 µM and 41.8 µM | > 100 µM | > 100 µM | > 100 µM | 22 µM and > 100 µM | 55 µM and > 100 µM | 5.81 µM and 7.42 µM | 30.3 µM and 28.4 µM | > 100 µM | > 100 µM | > 100 µM | > 100 µM | 16.4 µM and 23.6 µM | 55 µM and 63.6 µM | 7.14 µM and 20.5 µM | 18 µM and 45.2 µM | > 55 µM and 61.8 µM | > 100 µM | 27.3 µM and 51.9 µM | 55 µM and > 100 µM
COc1cc(/C=C\c2cc(OC)c(OC)c(OC)c2)cc(NS(=O)(=O)c2cccc(Cl)c2)c1OC | 0.264 µM | > 100 µM | 0.0492 µM | > 100 µM | 0.0368 µM | > 100 µM | 0.0715 µM | > 100 µM | 0.0383 µM | > 100 µM | 0.0437 µM | > 100 µM | 0.311 µM | > 100 µM | 0.338 µM | > 100 µM | 20.3 µM | > 100 µM | 0.0568 µM | > 100 µM
C#CCOc1cccc(Nc2ncc3ncn(C4CCN(C(=O)CCl)C4)c3n2)c1 (stereo not given) | > 62.5 µM | > 62.5 µM | 2.46 µM | > 62.5 µM | 21.5 µM | > 62.5 µM | > 62.5 µM | > 62.5 µM | 17.9 µM | > 62.5 µM | > 62.5 µM | > 62.5 µM | > 62.5 µM | > 62.5 µM | > 62.5 µM | > 62.5 µM | > 62.5 µM | > 62.5 µM | > 62.5 µM | > 62.5 µM
O=C1NC(O)CCN1C1CC(O)C(CO)O1 (stereo not given) | – | > 100 µM | – | > 100 µM | – | > 100 µM | – | > 100 µM | – | > 100 µM | – | > 100 µM | – | > 100 µM | – | > 100 µM | – | > 100 µM | – | > 100 µM
C(#Cc1ccccc1C#Cc1ccccn1)c1ccccn1 | 20.5 µM | 44.3 µM | 13.8 µM | 38.6 µM | 26.4 µM | > 100 µM | 1.96 µM | 12.2 µM | 7.02 µM | 27.1 µM | 11 µM | 22.9 µM | 16.6 µM | 37.9 µM | 7.71 µM | 24.4 µM | 19.3 µM | 39.8 µM | 14.7 µM | 28.6 µM
Cc1ccc(SCC(O)=C2C(=O)CCCC2=O)cc1 | – | > 100 µM | – | > 100 µM | – | > 100 µM | – | > 100 µM | – | > 100 µM | – | > 100 µM | – | > 100 µM | – | > 100 µM | – | > 100 µM | – | > 100 µM
Cc1cc(S(=O)(=O)Nc2nc3cc(-c4ccsc4)sc3c(=O)n2N)c(S)cc1Cl | 47.4 µM | > 100 µM | 64.7 µM | > 100 µM | 47.4 µM | > 100 µM | > 100 µM | > 100 µM | 52 µM | > 100 µM | 68.6 µM | > 100 µM | 49.7 µM | > 100 µM | > 100 µM | > 100 µM | > 100 µM | > 100 µM | 24.8 µM | 72.2 µM
N[C@H](C(=O)O)[C@@H](Cl)CC(=O)O | – | > 100 µM | – | > 100 µM | – | > 100 µM | – | > 100 µM | – | > 100 µM | – | > 100 µM | – | > 100 µM | – | > 100 µM | – | > 100 µM | – | > 100 µM
CS(=O)(=O)Nc1cc(-c2ccc3ncnc(Nc4cccc(Cl)c4F)c3c2)cnc1Cl | 5.3 µM | 24.1 µM | 2.59 µM | > 100 µM | 4.02 µM | 19.9 µM | 0.672 µM | 5.31 µM | 4.2 µM | > 100 µM | 4.32 µM | 16.5 µM | 2.57 µM | 18.2 µM | 1.67 µM | 4.93 µM | 2.62 µM | 18 µM | 1.76 µM | 11.7 µM
O=[N+]([O-])c1ccc(NC(=S)N/N=C(\c2ccccc2)c2ccccn2)cc1 | – | 3.37 µM and 3.96 µM | 0.0073 µM | 2.31 µM and 10.2 µM | – | 3.21 µM | 1.32 µM | 3.39 µM and 2.6 µM | 0.00498 µM | 2.41 µM and 3.82 µM | – | 3.35 µM and 4.12 µM | – | 2.98 µM and 3.03 µM | – | 2.83 µM and 3.06 µM | 0.0225 µM | 2.06 µM and 3.26 µM | 3.4 µM | 2.92 µM
CC(C)(O)CCC(O)C(C)(O)C1CCC2(O)C3=CC(=O)C4(O)CC(O)C(O)CC4(C)C3CCC12C (stereo not given) (tested in a mixture with another compound) | – | > 100 µM | – | > 100 µM | – | > 100 µM | – | > 100 µM | – | > 100 µM | – | > 100 µM | – | > 100 µM | – | > 100 µM | – | > 100 µM | – | > 100 µM
CCC(=O)OC1=CN2C(=NC(c3ccc(N)cc3)=CC2c2cc(OC)c(OC)c(OC)c2)S1 (stereo not given) | 3.22 µM | 26 µM | 2.41 µM | 9.13 µM | 3.51 µM | 13.1 µM | 1.76 µM | 7.37 µM | 3.47 µM | > 100 µM | 3.48 µM | 11.7 µM | 7.47 µM | > 100 µM | 2.3 µM | 7.98 µM | 5.96 µM | 19.9 µM | 3.03 µM | 11.8 µM
O=c1cccccc1NCCNc1cccccc1=O | – | > 100 µM | – | > 100 µM | – | > 100 µM | – | > 100 µM | – | > 100 µM | – | > 100 µM | – | > 100 µM | – | > 100 µM | – | > 100 µM | – | > 100 µM
Cn1c(O)c(N=NC(N)=S)c2ccccc21 | 62.6 µM | > 100 µM | 62.1 µM | > 100 µM | 40.9 µM | > 100 µM | 88 µM | > 100 µM | 95.2 µM | > 100 µM | 88.3 µM | > 100 µM | > 100 µM | > 100 µM | 32 µM | > 100 µM | 71.6 µM | > 100 µM | > 100 µM | > 100 µM
C[C@@H](c1ccccc1)N(CC#N)C1CCC[C@H]1O (stereo not given in full) | – | > 100 µM | – | > 100 µM | – | > 100 µM | – | > 100 µM | – | > 100 µM | – | > 100 µM | – | > 100 µM | – | > 100 µM | – | > 100 µM | – | > 100 µM
O=C(Nc1ccc(-c2ccnc(Nc3ccc(N4CCOCC4)cc3)n2)cc1)C1CCCN1 (stereo not given) | 5.66 µM | 35.3 µM | 2.36 µM | 39.9 µM | 1.43 µM | 18.5 µM | 4.1 µM | 24.4 µM | 2 µM | > 53.3 µM | 7.49 µM | 27.3 µM | 6.69 µM | 52.5 µM | 2.23 µM | 9.36 µM | 8.99 µM | 22.8 µM | 6.63 µM | 20.8 µM
